Patent US20230023332A1, “OLEAN-PHENYLACRYLAMIDE DERIVATIVE, METHOD FOR PREPARING SAME, AND USE THEREOF” (Lunan Pharmaceutical Group Corporation, priority 2019, published 2023)
Like-named read-outs stand apart in the source and are kept apart here.

Columns and labels:
Type in all cases: cell-based
[1] = test system: human non-small cell lung cancer cell strain A549; assay: MTT proliferation inhibition, A549; details: Homo sapiens, A549 cells, 48 h, read-out: Inhibitory activity (IC50) against proliferation, A549
Protocol: (§1) The anti-tumor activity of the compounds of the present invention was determined by the method of methyl thiazolyl tetrazolium (MTT), Bardoxolone Methyl (CDDO-Me) being selected as a positive control medicament.
(§2) Instruments: ultra-clean bench (SW-CJ-1FD, AIRTECH, Suzhou Antai Airtech Co. Ltd.), constant-temperature CO2 incubator (3111, Thermo, USA), inverted biomicroscope (IX71, OLYMPUS, Japan), ELISA microplate reader (Model 680, BIO-RAD, USA), platform shaker (Kylin-bell lab Instruments), autoclave (YXO.SG4I.280, Shanghai Huaxian), and centrifuge (SIGMA).
(§3) Reagents: DMEM (GIBCO), fetal bovine serum (GIBCO), trypsin (SIGMA), and DMSO (SIGMA).
(§4) Cell strains: human non-small cell lung cancer cell strain A549, human liver cancer cell strain HepG2, human breast cancer cell strain MCF-7, human renal tubular epithelial cells HK-2, rat embryonic cardiomyocytes H9C2 (all provided by Jiangsu KeyGEN BioTECH Co., Ltd.).
(§5) Methods: the cryopreserved cell strains were resuscitated and cultured in a CO2 incubator at a constant temperature of 37° C. with liquid being changed once daily. Plating was carried out when the cell strains were in a good state in the exponential phase. 1 mL of 0.25% trypsin solution was added for digestion for 1-2 min. The cell status was observed under the microscope, and when the adherent cells became round and shrunk, the digestion solution was aspirated and 1-2 mL of a DMEM medium containing 10% fetal bovine serum was added to obtain a cell suspension, on which a cell count was performed. The amount of required cell suspension was calculated on the basis of 5×10^4 cells per well and the total number of wells. The cell suspension was inoculated on a 96-well plate at 100 μL/well, the surroundings being blocked with PBS, followed by incubation in a CO2 incubator at a constant temperature of 37° C. for 24 h.
(§6) The test medicament, positive control medicament CDDO-Me, and blank control group DMSO were prepared in DMEM media to a final concentration of 5 μM/well, each medicament being placed in 3 replicate wells, followed by incubation for 48 h. The MTT reagent was added to the 96-well plate at 10 μL/well to further incubate for 4 h. The medium in the plate was aspirated and 100 μL of DMSO was added to each well, followed by shaking on the platform shaker for 10 min such that the crystals were dissolved. The absorbance of each well was examined by the ELISA microplate reader at a wavelength of 570 nm, and the cell inhibition rate was calculated according to the formula hereinafter. The mean value of three preliminary screening results was taken as the final inhibition rate thereof.
(§7) Cell inhibition rate (%)=[(OD value of blank control−OD value of dosing cohort)/OD value of blank control group]×100%

[2] = test system: human liver cancer cell strain HepG2; assay: MTT proliferation inhibition, HepG2; details: Homo sapiens, HepG2 cells, 48 h, read-out: Inhibitory activity (IC50) against proliferation, HepG2
Protocol: as §1, §2, §3, §4, §5
The MTT reagent was added to the 96-well plate at 10 μL/well to further incubate for 4 h. The medium in the plate was aspirated and 100 μL of DMSO was added to each well, followed by shaking on the platform shaker for 10 min such that the crystals were dissolved. […] The mean value of three preliminary screening results was taken as the final inhibition rate thereof.
as §7

[3] = test system: human renal tubular epithelial cells HK-2; assay: MTT proliferation inhibition / toxicity, HK-2; details: for IC50: Homo sapiens, HK-2 cells, MTT, 48 h, read-out: Inhibitory activity (IC50) against proliferation, HK-2; for toxicity to human renal tubular epithelial cells HK-2: statement in words
Protocol: as §1, §2, §3, §4, §5, §6, §7

[4] = test system: human breast cancer cell strain MCF-7; assay: MTT proliferation inhibition, MCF-7; details: Homo sapiens, MCF7, MCF-7 cells, 48 h, read-out: Inhibitory activity (IC50) against proliferation, MCF-7
Protocol: as §1, §2, §3, §4, §5, §6, §7

[5] = test system: rat embryonic cardiomyocytes H9C2; assay: MTT proliferation inhibition / toxicity, H9C2; details: Rattus norvegicus, H9C2 cardiomyocytes, MTT, 48 h, read-out: Inhibitory activity (IC50) against proliferation, H9C2
Protocol: as §1, §2, §3, §4, §5, §6, §7

| Structure (SMILES) | IC50 [1] [nM] | IC50 [2] [nM] | IC50 [4] [nM] | IC50 [3] [nM] | toxicity to human renal tubular epithelial cells HK-2 [3] | IC50 [5] [nM] | IC50 ([5]; H9c2, 48 h) [nM] |
| --- | --- | --- | --- | --- | --- | --- | --- |
| COc1ccc(/C=C(\C#N)C(=O)N[C@]23CCC(C)(C)C[C@H]2[C@H]2C(=O)C=C4[C@@]5(C)C=C(C#N)C(=O)C(C)(C)[C@@H]5CC[C@@]4(C)[C@]2(C)CC3)cc1 [Compound I-9] | 624 ± 111 | 816 ± 14 | 1130 ± 40 | 748 ± 341 | lower toxicity | 417 ± 19 | – |
| CC1(C)CC[C@]2(NC(=O)/C=C/c3ccc(Cl)cc3)CC[C@]3(C)[C@H](C(=O)C=C4[C@@]5(C)C=C(C#N)C(=O)C(C)(C)[C@@H]5CC[C@]43C)[C@@H]2C1 [Compound I-6] | 588 ± 36 | 482 ± 2 | 738 ± 9 | 727 ± 430 | lower toxicity | 373 ± 2 | – |
| CC1(C)CC[C@]2(NC(=O)/C=C/c3ccc(F)cc3)CC[C@]3(C)[C@H](C(=O)C=C4[C@@]5(C)C=C(C#N)C(=O)C(C)(C)[C@@H]5CC[C@]43C)[C@@H]2C1 [Compound I-5] | 788 ± 345 | 785 ± 96 | 1310 ± 127 | 2825 ± 4 | lower toxicity | 316 ± 1 | – |
| CC1(C)CC[C@]2(NC(=O)/C=C(\C#N)c3ccccc3)CC[C@]3(C)[C@H](C(=O)C=C4[C@@]5(C)C=C(C#N)C(=O)C(C)(C)[C@@H]5CC[C@]43C)[C@@H]2C1 [Compound I-13] | 414 ± 17 | 328 ± 13 | 375 ± 130 | 473 ± 630 | lower toxicity | – | 7 ± 9 |
| CC1(C)CC[C@]2(NC(=O)/C(C#N)=C/c3ccc(F)cc3)CC[C@]3(C)[C@H](C(=O)C=C4[C@@]5(C)C=C(C#N)C(=O)C(C)(C)[C@@H]5CC[C@]43C)[C@@H]2C1 [Compound I-11] | 609 ± 67 | 337 ± 12 | 424 ± 129 | 308 ± 71 | – | 52 ± 1 | – |
| CC1(C)CC[C@]2(NC(=O)/C=C/c3ccccc3)CC[C@]3(C)[C@H](C(=O)C=C4[C@@]5(C)C=C(C#N)C(=O)C(C)(C)[C@@H]5CC[C@]43C)[C@@H]2C1 [Compound I-1] | 599 ± 377 | 409 ± 16 | 574 ± 21 | 799 ± 92 | lower toxicity | 251 ± 8 | – |
| COc1ccc(/C(C#N)=C/C(=O)N[C@]23CCC(C)(C)C[C@H]2[C@H]2C(=O)C=C4[C@@]5(C)C=C(C#N)C(=O)C(C)(C)[C@@H]5CC[C@@]4(C)[C@]2(C)CC3)cc1 [Compound I-15] | 658 ± 58 | 524 ± 32 | 551 ± 140 | 350 ± 37 | – | 146 ± 12 | – |
| CC1(C)CC[C@]2(NC(=O)/C=C(\C#N)c3ccc(Cl)cc3)CC[C@]3(C)[C@H](C(=O)C=C4[C@@]5(C)C=C(C#N)C(=O)C(C)(C)[C@@H]5CC[C@]43C)[C@@H]2C1 [Compound I-18] | 300 ± 13 | 406 ± 17 | 500 ± 170 | 647 ± 21 | lower toxicity | – | – |

More lines, main results first:

| IC50 [1] [nM] | IC50 [2] [nM] | IC50 [4] [nM] | Structure (SMILES) | IC50 [3] [nM] | toxicity to human renal tubular epithelial cells HK-2 [3] | IC50 [5] [nM] | IC50 ([5]; H9c2, 48 h) [nM] |
| --- | --- | --- | --- | --- | --- | --- | --- |
| 549 ± 10 | 772 ± 63 | 547 ± 74 | Cc1ccc(/C=C/C(=O)N[C@]23CCC(C)(C)C[C@H]2[C@H]2C(=O)C=C4[C@@]5(C)C=C(C#N)C(=O)C(C)(C)[C@@H]5CC[C@@]4(C)[C@]2(C)CC3)cc1 [Compound I-2] | 1390 ± 32 | lower toxicity | 218 ± 7 | – |
| 362 ± 12 | 297 ± 11 | 460 ± 105 | CC1(C)CC[C@]2(NC(=O)/C(C#N)=C/c3ccc(C(F)(F)F)cc3)CC[C@]3(C)[C@H](C(=O)C=C4[C@@]5(C)C=C(C#N)C(=O)C(C)(C)[C@@H]5CC[C@]43C)[C@@H]2C1 [Compound I-10] | 234 ± 117 | – | 233 ± 10 | – |
| 402 ± 20 | 412 ± 6 | 562 ± 132 | CC1(C)CC[C@]2(NC(=O)/C=C/c3ccc(C(F)(F)F)cc3)CC[C@]3(C)[C@H](C(=O)C=C4[C@@]5(C)C=C(C#N)C(=O)C(C)(C)[C@@H]5CC[C@]43C)[C@@H]2C1 [Compound I-4] | 516 ± 72 | lower toxicity | 215 ± 4 | – |
| 345 ± 174 | 114 ± 4 | 238 ± 8 | CC1(C)CC[C@]2(NC(=O)/C=C(\C#N)c3ccc(F)cc3)CC[C@]3(C)[C@H](C(=O)C=C4[C@@]5(C)C=C(C#N)C(=O)C(C)(C)[C@@H]5CC[C@]43C)[C@@H]2C1 [Compound I-17] | 229 ± 126 | – | – | – |
| 337 ± 15 | 313 ± 35 | 432 ± 188 | Cc1ccc(/C(C#N)=C/C(=O)N[C@]23CCC(C)(C)C[C@H]2[C@H]2C(=O)C=C4[C@@]5(C)C=C(C#N)C(=O)C(C)(C)[C@@H]5CC[C@@]4(C)[C@]2(C)CC3)cc1 [Compound I-14] | 939 ± 62 | lower toxicity | 14 ± 1 | – |
| 367 ± 18 | 527 ± 133 | 375 ± 38 | COc1ccc(/C=C/C(=O)N[C@]23CCC(C)(C)C[C@H]2[C@H]2C(=O)C=C4[C@@]5(C)C=C(C#N)C(=O)C(C)(C)[C@@H]5CC[C@@]4(C)[C@]2(C)CC3)cc1 [Compound I-3] | 700 ± 16 | lower toxicity | 174 ± 5 | – |
| 329 ± 47 | 563 ± 23 | 789 ± 52 | Cc1ccc(/C=C(\C#N)C(=O)N[C@]23CCC(C)(C)C[C@H]2[C@H]2C(=O)C=C4[C@@]5(C)C=C(C#N)C(=O)C(C)(C)[C@@H]5CC[C@@]4(C)[C@]2(C)CC3)cc1 [Compound I-8] | 423 ± 30 | lower toxicity | 274 ± 2 | – |
